Results from ChEMBL document CHEMBL1133725, “Modeling of kappa-opioid receptor/agonists interactions using pharmacophore-based and docking simulations” (J Med Chem, 2000).

What was measured:
[1] = target: T1, Kappa-type opioid receptor (Cavia porcellus, UniProt P41144); test: Inhibition of [3H]U-69593 binding to Opioid receptor kappa 1 in guinea pig brain homogenates; type: tissue-based
[2] = target: T1, Kappa-type opioid receptor; test: Inhibition of [3H]diprenorphine binding to Opioid receptor kappa 1 in guinea pig cerebellar fraction
[3] = target: T1, Kappa-type opioid receptor; test: Inhibition of [3H]EKC binding to Opioid receptor kappa 1 in guinea pig forebrain

T1 sequence (P41144 whole entry): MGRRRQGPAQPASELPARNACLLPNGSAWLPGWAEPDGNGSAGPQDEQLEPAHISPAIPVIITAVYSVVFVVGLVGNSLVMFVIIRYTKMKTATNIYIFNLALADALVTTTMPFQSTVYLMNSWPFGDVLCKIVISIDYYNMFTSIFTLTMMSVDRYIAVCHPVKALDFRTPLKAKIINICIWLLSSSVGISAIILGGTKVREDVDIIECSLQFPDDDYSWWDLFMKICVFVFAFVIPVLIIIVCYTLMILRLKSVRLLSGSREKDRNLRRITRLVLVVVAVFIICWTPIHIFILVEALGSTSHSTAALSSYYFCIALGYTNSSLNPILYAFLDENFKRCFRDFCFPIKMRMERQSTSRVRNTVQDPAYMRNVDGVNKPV

SMILES	Ki [1] [pM]	further results
O=C1N(c2ccc(Cl)c(Cl)c2)CCCN1[C@H](CN1CCCC1)c1ccccc1	420	
O=C([C@@H]1CCc2cc(Cl)c(Cl)cc21)N1CCSC[C@H]1CN1CCCC1	440	
COC(=O)[C@]1(c2ccccc2)C[C@@H]1CN1CC[C@@]2(C)c3cc(O)ccc3CC1[C@@H]2C		Ki [2]: 240000 pM
O=C1[C@@H](c2ccc(Cl)c(Cl)c2)CCN1[C@H]1CCCC[C@@H]1N1CCCC1		Ki [3]: 10000 pM
CN1CCCC1[C@@H]1CCCCN1C(=O)Cc1ccc(Cl)c(Cl)c1 (stereo not given in full)	330	
